Residues, ends and D or L forms follow the SMILES beside them. *: point of attachment. Biotin = O=C1N[C@H]2[C@H](CS[C@H]2CCCCC(=O)*)N1
Key:
[1] = system: Bio-sTT1Ct-interacting proteins of primary cortical cultures; experiment: Pull-down with biotinylated peptide and label-free proteomics; format: binding, Rattus norvegicus; settings: pull-down from neuronal-enriched cortical cultures; did not pass the selection criteria
Method: Cultures incubated with biotinylated peptides and treated as indicated were lysed at 4°C in NP-40 lysis buffer. Equal protein amounts were combined with streptavidin-agarose beads and incubated for 1.5 h for specifically-bounded protein isolation. Peptides and their interacting proteins were released by incubation at 50°C for 40 min in RIPA modified buffer. Peptide-interacting proteins were collected and subjected to LC-ESI-MS/MS (HR, medium gradient) protein identification using a mass spectrometer (Orbitrap Exploris 240) and Proteome Discoverer software for analysis (CNB Proteomics Facility, CSIC). Further procedure details are provided as Supplementary material.
Cultures were incubated with Bio-TMyc or Bio-sTT1Ct (30 min) before treatment with BDNF (100 ng/ml) or NMDA (100 µM) for 30 additional minutes, or left untreated (Figure 2A). […] Then, proteins interacting with Bio-TMyc and Bio-sTT1Ct were identified by a label free proteomic assay, obtaining a total of 4697 proteins for the three different biological conditions and four independent experiments analyzed. […] Therefore, we evaluated by a Principal Component Analysis (PCA) whether the interactome profiles obtained were different for both peptides (Figure 2B). […]
[…]

[2] = Immunoglobulin infiltration in ischemic brain; format: in vivo; settings: male mice, 24 h after insult; versus control peptide (Fig S7)
Method: The brains of animals injected one hour af ter the initiation of the photothrombotic damage with vehicle (saline), TMyc or TT1Ct (3 nmol/g) were process ed and cryoprote cted as before indicated. The duration of damage before sa cri f i ce was 5 h (male and female) or 24 h (male).
Coronal froze n se ctions were incubated with blocking solution as des cribe d in flota tion for 1 h at room temperature and then overnight with prima ry antibodies diluted in 4% goat se rum and 0.3% Triton X-100 in PBS at 4°C. After was hing, slides were incubated 1 h with Alexa Fluor 546- conjugated goat anti-rabbit or AlexaFluor 647- conjugated goat anti-mouse se condary antibodies to visua liz e the prima ry antibodies and DAPI (5 μg/ml). Only for Iba1 sta ining, blocking solution was 2.5% BS A, 5% goat se rum, 0.5% Triton X-100 in PBS, and se ctions were incubated with prima ry antibody 24 h at RT follow ed by was hing and Alexa Fluor 546-conjugated goat anti-rabbit and DAPI incubation for 1 h. Sections were then was hed in PBS, mounted on slides , dried for 15 min at 37 °C on a hot plate, or air dried overnight and then cover slipped with DPX or Prolong Diamond. Ce ll Obs erve d images were obtained with Zeiss microscope Observe r.Z1 using a 10x Plan-Apochromatic objective. […]

Compound	Binding of RhoGDI (Arhgdia) to the peptide [1]	Immunoglobulin infiltration [2]
CC[C@H](C)[C@H](NC(=O)[C@H](CCCCN)NC(=O)[C@H](Cc1c[nH]cn1)NC(=O)[C@H](Cc1ccccc1)NC(=O)[C@H](CC(C)C)NC(=O)[C@@H](NC(=O)[C@H](Cc1ccccc1)NC(=O)[C@H](CCCNC(=N)N)NC(=O)[C@H](CCCNC(=N)N)NC(=O)[C@H](CCCNC(=N)N)NC(=O)[C@H](CCC(N)=O)NC(=O)[C@H](CCCNC(=N)N)NC(=O)[C@H](CCCNC(=N)N)NC(=O)[C@H](CCCCN)NC(=O)[C@H](CCCCN)NC(=O)[C@H](CCCNC(=N)N)NC(=O)CNC(=O)[C@H](Cc1ccc(O)cc1)NC(=O)CCCC[C@@H]1SC[C@@H]2NC(=O)N[C@@H]21)C(C)C)C(=O)N1CCC[C@H]1C(=O)N[C@@H](CC(C)C)C(=O)N[C@@H](CC(=O)O)C(=O)NCC(N)=O [Bio-sTT1Ct] (Biotin-YGRKKRRQRRRFVLFHKIPLDG-NH2)	very low binding	
Ac-YGRKKRRQRRRPPFVLFHKIPLDG-NH2 [TT1Ct]		reduced immunoglobulin infiltration
